Measured values from the OPERA property sets (Mansouri et al. 2018).

Details: not given

Point of comparison: `Cc1c(Cl)cc(Cl)c(O)c1Cl`, boiling point 265 °C. Against it:
- CC1CC1 — lower, 0.7 °C
- CC#N — lower, 81.6 °C
- Brc1ccsc1Br — lower, 218 °C
- N#CCCOCCC#N — higher, 306 °C
- CC(=O)Oc1ccc(C)cc1C — lower, 226 °C
- CC(C)COC(C)OCC(C)C — lower, 171 °C
- CCCC[Si]1(C)O[Si](C)(CCCC)O[Si](C)(CCCC)O[Si](C)(CCCC)O1 (stereo unspecified) — higher, 291 °C
- CCN(CCO)CCO — lower, 247 °C
- Cc1ccc(Br)cc1 — lower, 184 °C
- CCCCCC(CC)CC — lower, 166 °C
- CC(F)(Cl)CCl (stereo unspecified) — lower, 88.6 °C
- CCCCCCCCCCCCCCCCCCc1ccccc1 — higher, 408 °C
- CC(=O)c1ccsc1 — lower, 210 °C
- Nc1cccc(N)n1 — higher, 285 °C
- O=C(O)C1CCCCC1 — lower, 232 °C
- CCOCC(C)O (stereo unspecified) — lower, 131 °C
- C=CC(=C)CCC=C(C)C — lower, 167 °C
- COC(=O)COc1ccccc1 — lower, 245 °C
- CCc1ccccn1 — lower, 149 °C
- FC(F)(F)C(F)(Cl)Cl — lower, 4 °C
- CNC(=O)Oc1cccc2ccccc12 — higher, 315 °C
- Nc1cccc(N)c1 — higher, 285 °C
- FC(F)(F)C(F)(Cl)C(F)(Cl)C(F)(F)F (stereo unspecified) — lower, 63 °C
- Brc1ccc2ncccc2c1 — higher, 281 °C
- C=C(Cl)C(Cl)CCl (stereo unspecified) — lower, 155 °C
- CCCCC(CC)CC — lower, 143 °C
- Pc1ccccc1 — lower, 160 °C

Point of comparison: `CCc1ccccn1`, log10 vapour pressure (mmHg) 0.689. Against it:
- CC1CC1 — higher, 3.2
- CC#N — higher, 1.95
- CCOc1cc(C(C)(C)C)ccc1C1COC(c2c(F)cccc2F)=N1 (stereo unspecified) — lower, -7.79
- N#CCCOCCC#N — lower, -3.76
- Cc1ccc(Br)cc1 — lower, 0.0607
- Clc1cccc(C(Cl)(Cl)Cl)n1 — lower, -2.32
- C=CC(=C)CCC=C(C)C — lower, 0.304
- FC(F)(F)C(F)(Cl)Cl — higher, 3.21
- CNC(=O)Oc1cccc2ccccc12 — lower, -5.87
- Nc1cccc(N)c1 — lower, -2.68
- CCc1ccc(O)c(C(C)(C)C)c1 — lower, -1.74
- CNC(=O)Oc1ccc(C)c(C)c1 — lower, -3.24
- C=C(Cl)C(Cl)CCl (stereo unspecified) — lower, 0.274

Point of comparison: `O=C(c1ccccc1)c1ccc(C(F)(F)F)cc1`, melting point 115 °C. Against it:
- CC1CC1 — lower, -177 °C
- On1nnc2ccccc21 — higher, 158 °C
- CC#N — lower, -43.8 °C
- CN(C)c1ccc(CO)cc1 — lower, 69 °C
- CN(C)c1ccc(C(=O)c2ccc(N(C)C)cc2)cc1 — higher, 179 °C
- O=C(O)c1cc(Cl)c(C(=O)O)cc1Cl — higher, 306 °C
- Brc1ccsc1Br — lower, -17.5 °C
- CCOc1cc(C(C)(C)C)ccc1C1COC(c2c(F)cccc2F)=N1 (stereo unspecified) — lower, 102 °C
- N#CCCOCCC#N — lower, -26.3 °C
- CCN(CCO)CCO — lower, -50 °C
- Cc1ccc(Br)cc1 — lower, 28.5 °C
- Nc1ccc(-c2ccc(Cl)cc2)cc1 — higher, 134 °C
- CC(F)(Cl)CCl (stereo unspecified) — lower, -91.7 °C
- CCC(CO)(CO)COCC(CC)(CO)CO — lower, 110 °C
- CCCCCCCCCCCCCCCCCCc1ccccc1 — lower, 29 °C
- Cc1cccc(C(N)=O)c1 — lower, 95 °C
- CC(=O)c1ccsc1 — lower, 60 °C
- Nc1cccc(N)n1 — higher, 122 °C
- CCCCCCCCCCC(=O)CC — lower, 31 °C
- O=C1NC(=O)C2C3C(C(O)(c4ccccc4)c4ccccn4)=CC(C3=C(c3ccccc3)c3ccccn3)C12 (stereo unspecified) — higher, 194 °C
- O=C(O)C1CCCCC1 — lower, 31.5 °C
- Clc1cccc(C(Cl)(Cl)Cl)n1 — lower, 63 °C
- COC(=O)COc1ccccc1 — higher, 245 °C
- CCc1ccccn1 — lower, -63.1 °C
- CCCCCCCCCCCCCCCCCC(=O)OCC(O)CO (stereo unspecified) — lower, 74 °C
- O=c1c2ccccc2nc2n1CCc1c-2[nH]c2ccccc12 — higher, 260 °C
- CCOc1ccc2nc3cc(N)ccc3c(N)c2c1 — higher, 226 °C
- O=CC=CC=Cc1ccccc1 — lower, 42.5 °C
- FC(F)(F)C(F)(Cl)Cl — lower, -56.6 °C
- Fc1ccccc1C1=NCC(=S)N(CC(F)(F)F)c2ccc(Cl)cc21 — higher, 138 °C
- Cc1cc(C2CCCCC2)n(O)c(=O)c1 — higher, 144 °C
- CNC(=O)Oc1cccc2ccccc12 — higher, 145 °C
- Nc1cccc(N)c1 — lower, 63.5 °C
- O=c1cc(-c2ccccc2)oc2cc(O)cc(O)c12 — higher, 286 °C
- Cc1cccc(N(C)C(=S)Oc2ccc3ccccc3c2)c1 — lower, 111 °C
- Cc1c(Cl)cc(Cl)c(O)c1Cl — lower, 46 °C
- FC(F)(F)C(F)(Cl)C(F)(Cl)C(F)(F)F (stereo unspecified) — lower, -68 °C
- CNC(=O)Oc1ccc(C)c(C)c1 — lower, 79.5 °C
- Brc1ccc2ncccc2c1 — lower, 24 °C
- CC(C)(C)OC(=O)CC(=O)OC(C)(C)C — lower, -6 °C
- CNC(C)Cc1ccc(O)cc1 (stereo unspecified) — higher, 161 °C
- O=C(O)CCc1nc(-c2ccccc2)c(-c2ccccc2)o1 — higher, 161 °C
- O=C1CCCCCCCN1 — lower, 78 °C
- CCCCC(CC)CC — lower, -115 °C
- O=C1CCCCCCCC1 — lower, 34 °C

Point of comparison: `Clc1cccc(C(Cl)(Cl)Cl)n1`, log10 Koc (L/kg) 2.62. Against it:
- COc1nc(Cl)c(Cl)cc1Cl — higher, 2.96
- CN(C)c1ccc(C(=O)c2ccc(N(C)C)cc2)cc1 — lower, 2.21
- CNC(=O)Oc1cccc2ccccc12 — lower, 2.4

In the case of `Cl[C@H]1[C@H](Cl)[C@@H](Cl)[C@H](Cl)[C@@H](Cl)[C@H]1Cl` (racemic), the ready biodegradability was “not readily biodegradable”.
With `CC#N` the ready biodegradability was “readily biodegradable”.
For `CN(C)c1ccc(C(=O)c2ccc(N(C)C)cc2)cc1`, the ready biodegradability was “not readily biodegradable”.
In the case of `N#CCCOCCC#N`, the ready biodegradability was “readily biodegradable”.
For `CCN(CCO)CCO`, the ready biodegradability was “not readily biodegradable”.
With `O=C(Nc1cccc(N(CCO)CCO)c1)c1ccccc1` the ready biodegradability was “not readily biodegradable”.
In the case of `CCC(CO)(CO)COCC(CC)(CO)CO`, the ready biodegradability was “not readily biodegradable”.
With `Nc1cccc(N)n1` the ready biodegradability was “not readily biodegradable”.
For `C=CC(=C)CCC=C(C)C`, the ready biodegradability was “readily biodegradable”.
With `CCCCCCCCCCCCCCCCCC(=O)OCC(O)CO` (stereo unspecified) the ready biodegradability was “readily biodegradable”.
In the case of `CNC(=O)Oc1cccc2ccccc12`, the ready biodegradability was “readily biodegradable”.
For `Nc1cccc(N)c1`, the ready biodegradability was “not readily biodegradable”.
For `Nc1ccc(/C=C/c2ccc(N)cc2S(=O)(=O)O)c(S(=O)(=O)O)c1`, the ready biodegradability was “not readily biodegradable”.

Point of comparison: `Cc1ccc(Br)cc1`, log10 Henry constant (atm·m³/mol) -2.63. Against it:
- CC#N — lower, -4.46
- CCc1ccccn1 — lower, -4.78

`CC#N` showed a log10 Koa of 2.31.

Same assay, conditions: fish

Point of comparison: `Clc1ccc2c(c1)Oc1ccc(Cl)cc1O2`, log10 BCF 2.54. Against it:
- CC(C)[N+](=O)[O-] — lower, 0.92
- CCC(C)=NO — lower, 0.7
- CN(C)c1ccc(C(=O)c2ccc(N(C)C)cc2)cc1 — lower, 1.45
- CNC(=O)Oc1cccc2ccccc12 — lower, 0.95
- Nc1cccc(N)c1 — lower, 0.81

Point of comparison: `CN(C)c1ccc(C(=O)c2ccc(N(C)C)cc2)cc1`, log10 biotransformation half-life (days) -0.77. Against it:
- CC(C)[N+](=O)[O-] — lower, -1.2
- CCCCCCCCCCCCC — higher, 1.03
- Clc1ccc2c(c1)Oc1ccc(Cl)cc1O2 — higher, 0.23
- CCC(C)=NO — lower, -1.33
- CNC(=O)Oc1cccc2ccccc12 — lower, -1.18
